Assay results published in US20260306502A1, “MITOCHONDRIAL UNCOUPLERS FOR TREATMENT OF METABOLIC DISEASES AND CANCER” (Mito Biopharma, LLC, priority 2022, published 2026).

Columns and labels:
[1] = test system: cultured mammalian cells, the NIH-3T3 cells, C2C12 cells, and other mammalian cell lines; test: Mitochondrial membrane potential (MMP) assay, TMRE (or DilC1(5)) staining, related to OCR induction; assay type: cell-based; settings: ratio of concentration leading to 10% MMP retention (90% MMP loss, TMRE) to minimal concentration leading to OCR increase
Procedure: Mitochondrial membrane potential assay was performed using the standard TMRE (tetramethylrhodamine ethyl ester) staining method with cultured mammalian cells, the NIH-3T3 cells, C2C12 cells, and other mammalian cell lines. Cells were seeded in 6-well plates and cultured in DMEM medium supplemented with 10% fetal bovine serum and 2 mM glutamine. Cells were allowed to grow to the logarithmic growth phase prior to experiments. The cells were treated with each individual compound at various concentrations for two hours, followed by staining with TMRE at a final concentration of 100 nM for 15 minutes. The cells were then washed once with PBS, and examined under fluorescence microscopy. Cells treated with various concentrations of niclosamide ethanolamine were used as a positive control.
In some examples, mitochondrial membrane potential was measured with DilC1(5) staining. Briefly, DilC1(5) was added to the cells to 50 nM final concentration and the cells were incubated at 37° C., 5% CO2, for 15 to 30 minutes. Cells were washed once by adding 2 mL of warm phosphate-buffered saline (PBS). Mitochondrial staining was determined by fluorescence microscopy with 633 nm excitation using standard filters for far-red emission.
Using the ratio between C10% TMRE (the concentration at which 10% MMP remains, i.e. 90% MMP is lost) and Cmin-OCR (the concentration at which minimal OCR induction is observed), we categorized the MMP-retaining uncouplers into two groups.

[2] = test system: C2C12 cells; test: Mitochondrial uncoupling activity by oxygen consumption rate (OCR) assay, Seahorse, in presence of oligomycin; assay type: cell-based, mouse; settings: for minimal effective concentration: Mus musculus, C2C12, in the presence of oligomycin 2.5 μM, read-out: COCR-min: minimal concentration increasing OCR in the presence of oligomycin
Procedure: By definition, mitochondrial uncoupling is the decoupling of mitochondrial electron transport chain activity (mitochondrial oxidation) from ATP synthesis by mitochondrial ATP synthase. Technically, mitochondrial uncoupling activity is defined by the ability of a chemical compound to induce oxygen consumption of cells or isolated mitochondria in the presence of a mitochondrial ATP synthase inhibitor such as oligomycin. Accordingly, mitochondrial uncoupling activity was determined by oxygen consumption rate assay with a Seahorse XF96 or a Seahorse XF24 instrument following the vendor's instruction, using mouse myoblast C2C12 cells grown in a medium containing 10% fetal bovine serum. OCR was measured stepwise under the following conditions: first under normal growth conditions; then. OCR was measured after oligomycin was added to reach a final concentration of 2.5 μM); then OCR was measured after the compound was further added at varying concentrations. Finally, rotenone and antimycin A were added to confirm that the measurement was mitochondrial oxygen consumption (rotenone and […] mitochondrial electron transport chain inhibitors).
COCR-min the minimal concentration required for each compound to induce OCR in the presence of oligomycin, of disclosed compounds, was also determined by varying the final concentration of the compound added to the Seahorse OCR analysis experiment as described above (FIG. 2, varying testing compound concentration). Table 8 summarizes the mitochondrial uncoupling activity of disclosed compounds, as represented by COCR-min.

[3] = Metabolic stability assay in rat liver microsomes; assay type: in vitro ADME; settings: 1 μM compound, 0.5 mg/ml microsomal protein, 37° C.; for half-life at 1 µM: rat, liver microsomes, read-out: Metabolic stability half-life (T1/2, min, rat liver microsome)
Procedure: The metabolic stability of the compounds was evaluated in incubation with rat liver microsomes.

[4] = PO pharmacokinetic study, oral exposure (Example B3); assay type: in vivo; settings: blood, po; 10 mg/kg gavage, 24 hrs
Procedure: The blood concentration of the compound was then determined at 0 (pre-dosing), 5 min, 15 min, 30 min, 1 hr, 2 hr, 4 hr, 8 hr, 24 hr time points by LC-MS/MS analysis (See Tables 1 and 2, vide supra).

[5] = test system: high-fat diet (HFD)-induced diabetic mouse model; test: Efficacy in high-fat diet (HFD)-induced diabetic/fatty liver mouse model; assay type: in vivo; settings: Mus musculus; HFD model, oral daily gavage; read-out: Efficacious dosage to reduce blood glucose in mouse models, oral daily gavage
Procedure: For HFD induced diabetic mouse model, C57Bl6 mice (male, n=6) were induced to obese and diabetic conditions by feeding high-fat diet (HFD, 60% fat calories, Research Diet, Inc. New Brunswick, NJ) for 3-4 months. […] During the 3-week period, the mice continued feeding HFD. […] The blood glucose levels were measured after an overnight fast, plasma insulin levels were tested after 5-6 hours fast, and the glycated HbA1c levels were determined in whole blood samples.
FIG. 15C and FIG. 15D show liver sections from mice fed HFD following 3 weeks of treatment with Compounds 25 and 64, respectively (P.O. dosing of 5 mg/kg, by daily gavage).
Experiments were similarly performed with other compounds, in either high-fat diet induced diabetes and fatty liver models, or in db/db mouse model, or in both, by daily oral gavage administration with low dosages.

[6] = test system: LX-2 cells (human hepatic stellate cells); test: Inhibition of TGFβ-induced hepatic stellate cell differentiation into myofibroblast-like cells; assay type: cell-based; settings: TGFβ 10 ng/ml
Procedure: Liver fibrosis is one hallmark of NASH. […] This process could be modeled in vitro using the hepatic stellate differentiation experiment. The human hepatic stellate LX-2 cells were cultured within DMEM (Dulbecco's Modified Eagle Media, pH 7.4) supplied with 2% fetal bovine serum, 4.5 g/l glucose and 2 mM glutamine to 100 percent confluence. […] Cellular morphology was then examined under a microscope. As shown in FIG. 16 to FIG. 17, hepatic stellate cells could be induced by TGF-beta to differentiate into myofibroblast-like cells.

SMILES: COCCOCc1cc(C(F)(F)F)cc2sc(NC(=O)c3cc(Cl)cc(C)c3O)nc12 [drawing 348]
- C10%TMRE/Cmin-OCR [1]: [drawing 348]

SMILES: COCCOCc1cc(F)cc(C(=O)Nc2nc3ccc(C(F)(F)F)cc3s2)c1O [Compound 43]
- minimal effective concentration [2]: < 5 µM
- C10%TMRE/Cmin-OCR [1]: ~43

SMILES: CN(C)Cc1cc(Cl)cc(C(=O)Nc2nc3ccc(OC(F)(F)F)cc3s2)c1O
- Metabolic stability half-life (T1/2, min, rat liver microsome) [3]: ∞

SMILES: O=C(Nc1nc2ccc(C(F)(F)F)cc2s1)c1cc(Cl)ccc1O [drawing 303]
- C10%TMRE/Cmin-OCR [1]: [drawing 303]

SMILES: O=C(Nc1nc2ccc(C(F)(F)F)cc2s1)c1cc(Cl)ccc1O [drawing 306]
- C10%TMRE/Cmin-OCR [1]: [drawing 306]

SMILES: CN(C)Cc1cc(Cl)cc(C(=O)Nc2nc3ccc(C(F)(F)F)cc3s2)c1O
- half-life at 1 µM [3]: 14.7 h

SMILES: COCCOCc1cc(C(F)(F)F)cc2sc(NC(=O)c3cc(Cl)cc(C)c3O)nc12 [drawing 339]
- C10%TMRE/Cmin-OCR [1]: [drawing 339]

SMILES: O=C(Nc1nc2ccc(C(F)(F)F)cc2s1)c1cc(Cl)cc(C2CCCO2)c1O (stereo not shown) [Compound 15, 5-chloro-2-hydroxy-3-(tetrahydrofuran-2-yl)-N-(6-(trifluoromethyl)benzo[d]thiazol-2-yl)benzamide]
- minimal effective concentration [2]: < 5 µM
- AUC at 24 h [4]: > 120000 ng·h/mL
- minimal effective dose [5]: 2.5 mg/kg

SMILES: Cc1cc(Cl)cc(C(=O)Nc2nc3ccc(C(F)(F)F)cc3s2)c1O [drawing 333]
- C10%TMRE/Cmin-OCR [1]: [drawing 333]

SMILES: O=C(Nc1nc2ccc(C(F)(F)F)cc2s1)c1cc(Cl)ccc1O [drawing 318]
- C10%TMRE/Cmin-OCR [1]: [drawing 318]

SMILES: O=C(Nc1nc2ccc(C(F)(F)F)cc2s1)c1cc(Cl)cc(CN2CCCCC2)c1O [drawing 264]
- half-life at 1 µM [3]: 1.53 h

SMILES: Cc1cc(Cl)cc(C(=O)Nc2nc3ccc(C(F)(F)F)cc3s2)c1O [drawing 327]
- C10%TMRE/Cmin-OCR [1]: [drawing 327]

SMILES: O=C(Nc1nc2ccc(C(F)(F)F)cc2s1)c1cc(Cl)cc(CN2CCOCC2)c1O
- half-life at 1 µM [3]: 1.5 h

SMILES: O=C(Nc1nc2ccc(C(F)(F)F)cc2s1)c1cc(Cl)ccc1O [drawing 309]
- C10%TMRE/Cmin-OCR [1]: [drawing 309]

SMILES: Cc1cc(Cl)cc(C(=O)Nc2nc3ccc(C(F)(F)F)cc3s2)c1O [drawing 324]
- C10%TMRE/Cmin-OCR [1]: [drawing 324]

SMILES: COCc1cc(C(F)(F)F)cc2sc(NC(=O)c3cc(Cl)cc(C)c3O)nc12 [drawing 336]
- C10%TMRE/Cmin-OCR [1]: [drawing 336]

SMILES: COCCN(CCOC)Cc1cc(Cl)cc(C(=O)Nc2nc3ccc(C(F)(F)F)cc3s2)c1O [drawing 263]
- half-life at 1 µM [3]: 0.467 h

SMILES: CS(=O)(=O)C1CCN(Cc2cc(Cl)cc(C(=O)Nc3nc4ccc(C(F)(F)F)cc4s3)c2O)C1 (stereo not shown) [Compound 37, 5-chloro-2-hydroxy-3-((3-(methylsulfonyl)pyrrolidin-1-yl)methyl)-N-(6-(trifluoromethyl)benzo[d]thiazol-2-yl)benzamide]
- minimal effective concentration [2]: > 10 µM
- C10%TMRE/Cmin-OCR [1]: ~37

SMILES: O=C(Nc1nc2ccc(C(F)(F)F)cc2s1)c1cc(Cl)ccc1O [drawing 321]
- C10%TMRE/Cmin-OCR [1]: [drawing 321]

SMILES: O=C(Nc1nc2ccc(C(F)(F)F)cc2s1)c1cc(Cl)ccc1O [drawing 300]
- C10%TMRE/Cmin-OCR [1]: [drawing 300]

SMILES: O=C(Nc1ccc(C(F)(F)F)cc1Cl)c1cc(Cl)ccc1O
- C10%TMRE/Cmin-OCR [1]: [drawing 351]

SMILES: O=C(Nc1nc2ccc(C(F)(F)F)cc2s1)c1cc(Cl)ccc1O [drawing 312]
- C10%TMRE/Cmin-OCR [1]: [drawing 312]

SMILES: COCCOCc1cc(C(F)(F)F)cc2sc(NC(=O)c3cc(Cl)cc(C)c3O)nc12 [drawing 342]
- C10%TMRE/Cmin-OCR [1]: [drawing 342]

SMILES: O=C(Nc1nc2ccc(C(F)(F)F)cc2s1)c1cc(Cl)cc(CN2CCCC2)c1O [Compound 23, 5-chloro-2-hydroxy-3-(pyrrolidin-1-ylmethyl)-N-(6-(trifluoromethyl)benzo[d]thiazol-2-yl)benzamide]
- minimal effective concentration [2]: < 5 µM
- AUC at 24 h [4]: 10000 to 30000 ng·h/mL
- minimal effective dose [5]: 10 mg/kg
- minimal effective concentration ([6]; Homo sapiens, LX-2, hepatic stellate cell differentiation to myofibroblast-like cells, 24 hours, read-out: Minimal inhibitory concentration): 5 µM
- inhibition of TGFβ-induced hepatic stellate cell differentiation ([6]; in words): able to directly inhibit hepatic stellate cell (HSC) activation in vitro

SMILES: COCCOCc1cc(C(F)(F)F)cc2sc(NC(=O)c3cc(Cl)cc(C)c3O)nc12 [drawing 345]
- C10%TMRE/Cmin-OCR [1]: [drawing 345]

SMILES: Cc1cc(Cl)cc(C(=O)Nc2nc3ccc(C(F)(F)F)cc3s2)c1O [drawing 330]
- C10%TMRE/Cmin-OCR [1]: [drawing 330]

SMILES: Cc1cc(Cl)cc(C(=O)Nc2nc3c(COCc4ccc(F)cc4)cc(C(F)(F)F)cc3s2)c1O [Compound 83, 5-chloro-N-(4-(((4-fluorobenzyl)oxy)methyl)-6-(trifluoromethyl)benzo[d]thiazol-2-yl)-2-hydroxy-3-methylbenzamide]
- minimal effective concentration [2]: < 5 µM
- C10%TMRE/Cmin-OCR [1]: ~83

SMILES: COCCN(CCOC)Cc1cc(Cl)cc(C(=O)Nc2nc3c(COC)cc(C(F)(F)F)cc3s2)c1O [Compound 69, 3-((bis(2-methoxyethyl)amino)methyl)-5-chloro-2-hydroxy-N-(4-(methoxymethyl)-6-(trifluoromethyl)benzo[d]thiazol-2-yl)benzamide]
- minimal effective concentration [2]: < 5 µM
- effect on oxygen consumption rate (OCR) ([2]; in words): increase OCR in the presence of oligomycin
- AUC at 24 h [4]: 10000 to 30000 ng·h/mL

SMILES: O=C(Nc1nc2ccc(C(F)(F)F)cc2s1)c1cc(Cl)cc(CN2CCC2)c1O [Compound 27, 3-(azetidin-1-ylmethyl)-5-chloro-2-hydroxy-N-(6-(trifluoromethyl)benzo[d]thiazol-2-yl)benzamide]
- minimal effective concentration [2]: < 5 µM
- AUC at 24 h [4]: 30000 to 60000 ng·h/mL

SMILES: O=C(Nc1nc2ccc(C(F)(F)F)cc2s1)c1cc(Cl)ccc1O [drawing 315]
- C10%TMRE/Cmin-OCR [1]: [drawing 315]

SMILES: Cl.O=C(Nc1nc2ccc(C(F)(F)F)cc2s1)c1cc(Cl)cc(CCN2CCOCC2)c1O [Compound 17, 5-chloro-2-hydroxy-3-(2-morpholinoethyl)-N-(6-(trifluoromethyl)benzo[d]thiazol-2-yl)benzamide]
- minimal effective concentration [2]: < 5 µM
- AUC at 24 h [4]: 10000 to 30000 ng·h/mL

SMILES: O=C(Nc1ccc(C(F)(F)F)nc1)c1cc(Cl)ccc1O
- C10%TMRE/Cmin-OCR [1]: [drawing 354]

SMILES: COCCOCc1cc(C(F)(F)F)cc2sc(NC(=O)c3cc(Cl)cc(CN4CCCCC4)c3O)nc12 [Compound 66, 5-chloro-2-hydroxy-N-(4-((2-methoxyethoxy)methyl)-6-(trifluoromethyl)benzo[d]thiazol-2-yl)-3-(piperidin-1-ylmethyl)benzamide]
- minimal effective concentration [2]: < 5 µM
- AUC at 24 h [4]: 30000 to 60000 ng·h/mL

SMILES: N#CC1CCN(Cc2cc(Cl)cc(C(=O)Nc3nc4ccc(C(F)(F)F)cc4s3)c2O)C1 (stereo not shown) [Compound 36, 5-chloro-3-((3-cyanopyrrolidin-1-yl)methyl)-2-hydroxy-N-(6-(trifluoromethyl)benzo[d]thiazol-2-yl)benzamide]
- minimal effective concentration [2]: < 5 µM
- C10%TMRE/Cmin-OCR [1]: ~36
